Measurements as given in the supplement of paper PMC10307832.

How the values were obtained:
Assay in all cases: relative viability (nuclei count vs DMSO), 5 days (fraction); higher = more cells survive
Omipalisib + Trametinib = compound: COc1ncc(-c2ccc3nccc(-c4ccnnc4)c3c2)cc1NS(=O)(=O)c1ccc(F)cc1F [Omipalisib] + CC(=O)Nc1cccc(-n2c(=O)n(C3CC3)c(=O)c3c(Nc4ccc(I)cc4F)n(C)c(=O)c(C)c32)c1 [Trametinib] (partner 0.02 µM)
How it was run: (§1)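 Relative viability equals treated-well nuclei counts divided by vehicle-well nuclei counts. Counts came from 4× images of lung cancer cell lines grown in 1536-well plates for 5 days after pin-tool dosing on the day after seeding. Dosing used one drug alone or a fixed anchor-drug dose plus five library-drug doses (not always all listed) in √10 steps, and values are medians of duplicate plates.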

Omipalisib + OSI-027 = compound: COc1ncc(-c2ccc3nccc(-c4ccnnc4)c3c2)cc1NS(=O)(=O)c1ccc(F)cc1F [Omipalisib] + COc1cccc2cc(-c3nc([C@H]4CC[C@H](C(=O)O)CC4)n4ncnc(N)c34)[nH]c12 [OSI-027] (partner 0.5 µM)
How it was run: as §1

Omipalisib + Lapatinib = compound: COc1ncc(-c2ccc3nccc(-c4ccnnc4)c3c2)cc1NS(=O)(=O)c1ccc(F)cc1F [Omipalisib] + CS(=O)(=O)CCNCc1ccc(-c2ccc3ncnc(Nc4ccc(OCc5cccc(F)c5)c(Cl)c4)c3c2)o1 [Lapatinib] (partner 2 µM)
How it was run: as §1

Omipalisib + Dasatinib = compound: COc1ncc(-c2ccc3nccc(-c4ccnnc4)c3c2)cc1NS(=O)(=O)c1ccc(F)cc1F [Omipalisib] + Cc1nc(Nc2ncc(C(=O)Nc3c(C)cccc3Cl)s2)cc(N2CCN(CCO)CC2)n1 [Dasatinib] (partner 0.075 µM)
How it was run: as §1

Omipalisib + Decitabine = compound: COc1ncc(-c2ccc3nccc(-c4ccnnc4)c3c2)cc1NS(=O)(=O)c1ccc(F)cc1F [Omipalisib] + Nc1ncn([C@H]2C[C@H](O)[C@@H](CO)O2)c(=O)n1 [Decitabine] (partner 2 µM)
How it was run: as §1

Omipalisib + Vorinostat = compound: COc1ncc(-c2ccc3nccc(-c4ccnnc4)c3c2)cc1NS(=O)(=O)c1ccc(F)cc1F [Omipalisib] + O=C(CCCCCCC(=O)Nc1ccccc1)NO [Vorinostat] (partner 1 µM)
How it was run: as §1

| Cell Line | relative viability (Omipalisib + Trametinib; first compound 0.0003 µM) | relative viability (Omipalisib + Trametinib; first compound 0.003 µM) | relative viability (Omipalisib + Trametinib; first compound 0.03 µM) | relative viability (Omipalisib + OSI-027; first compound 0.0003 µM) | relative viability (Omipalisib + OSI-027; first compound 0.003 µM) | relative viability (Omipalisib + OSI-027; first compound 0.03 µM) | relative viability (Omipalisib + Lapatinib; first compound 0.0003 µM) | relative viability (Omipalisib + Lapatinib; first compound 0.003 µM) | relative viability (Omipalisib + Lapatinib; first compound 0.03 µM) | relative viability (Omipalisib + Dasatinib; first compound 0.0003 µM) | relative viability (Omipalisib + Dasatinib; first compound 0.003 µM) | relative viability (Omipalisib + Dasatinib; first compound 0.03 µM) | relative viability (Omipalisib + Decitabine; first compound 0.0003 µM) | relative viability (Omipalisib + Decitabine; first compound 0.003 µM) | relative viability (Omipalisib + Decitabine; first compound 0.03 µM) | relative viability (Omipalisib + Vorinostat; first compound 0.0003 µM) | relative viability (Omipalisib + Vorinostat; first compound 0.003 µM) | relative viability (Omipalisib + Vorinostat; first compound 0.03 µM) |
| --- | --- | --- | --- | --- | --- | --- | --- | --- | --- | --- | --- | --- | --- | --- | --- | --- | --- | --- |
| NCI-H520 | 0.576 | 0.314 | 0.172 | 0.235 | 0.214 | 0.203 | 0.778 | 0.581 | 0.22 | 0.159 | 0.162 | 0.131 | 0.51 | 0.369 | 0.233 | 0.623 | 0.458 | 0.214 |
| NCI-H596 | 0.899 | 0.494 | 0.299 | 0.726 | 0.352 | 0.309 | 0.972 | 0.833 | 0.421 | 0.618 | 0.44 | 0.295 | 0.846 | 0.75 | 0.506 | 0.581 | 0.364 | 0.447 |
| NCI-H647 | 0.341 | 0.278 | 0.15 | 0.547 | 0.408 | 0.264 | 0.932 | 0.782 | 0.272 | 0.162 | 0.0952 | 0.0677 | 0.34 | 0.248 | 0.378 | 0.304 | 0.368 | 0.295 |
| NCI-H650 | 0.925 | 0.628 | 0.393 | 0.447 | 0.384 | 0.315 | 0.816 | 0.759 | 0.499 | 0.469 | 0.317 | 0.266 | 0.375 | 0.257 | 0.321 | 0.325 | 0.337 | 0.186 |
| NCI-H661 | 0.605 | 0.454 | 0.409 | 0.661 | 0.582 | 0.344 | 0.366 | 0.294 | 0.196 | 0.822 | 0.573 | 0.312 | 0.522 | 0.453 | 0.422 | 0.78 | 0.782 | 0.785 |
| NCI-H727 | 0.381 | 0.337 | 0.264 | 0.596 | 0.439 | 0.393 | 0.723 | 0.776 | 0.674 | 0.353 | 0.327 | 0.366 | 0.778 | 0.712 | 0.755 | 1.1 | 1.02 | 0.987 |
| NCI-H838 | 0.494 | 0.389 | 0.199 | 0.335 | 0.345 | 0.181 | 0.942 | 0.683 | 0.31 | 0.263 | 0.223 | 0.23 | 0.471 | 0.391 | 0.268 | 0.678 | 0.639 | 0.557 |
| NCI-H1355 | 0.361 | 0.263 | 0.194 | 0.377 | 0.238 | 0.237 | 0.942 | 0.665 | 0.54 | 0.596 | 0.402 | 0.307 | 0.366 | 0.326 | 0.242 | 0.646 | 0.396 | 0.232 |
| NCI-H1395 | 1.05 | 0.83 | 0.615 | 0.608 | 0.458 | 0.527 | 0.983 | 0.783 | 0.608 | 0.417 | 0.362 | 0.348 | 0.661 | 0.625 | 0.567 | 0.716 | 0.525 | 0.523 |
| NCI-H1437 | 0.583 | 0.31 | 0.209 | 0.854 | 0.639 | 0.323 | 0.795 | 0.55 | 0.308 | 0.411 | 0.323 | 0.202 | 0.519 | 0.564 | 0.398 | 0.948 | 0.75 | 0.448 |
| NCI-H1650 | 0.438 | 0.633 | 0.512 | 0.717 | 0.413 | 0.259 | 0.771 | 0.771 | 0.576 | 0.326 | 0.237 | 0.189 | 0.272 | 0.395 | 0.42 | 0.501 | 0.287 | 0.379 |
| NCI-H1651 | 0.712 | 0.711 | 0.535 | 0.55 | 0.632 | 0.482 | 0.538 | 0.65 | 0.44 | 0.342 | 0.297 | 0.272 | 0.528 | 0.476 | 0.446 | 0.517 | 0.457 | 0.437 |
| NCI-H1666 | 0.872 | 0.592 | 0.61 | 0.758 | 0.621 | 0.609 | 0.502 | 0.298 | 0.24 | 0.787 | 0.673 | 0.539 | 0.843 | 0.614 | 0.567 | 1.02 | 0.881 | 0.815 |
| NCI-H1734 | 0.54 | 0.362 | 0.288 | 0.561 | 0.275 | 0.239 | 0.943 | 0.699 | 0.551 | 0.396 | 0.243 | 0.194 | 0.442 | 0.331 | 0.347 | 0.683 | 0.466 | 0.35 |
| NCI-H1755 | 0.736 | 0.695 | 0.356 | 0.707 | 0.501 | 0.448 | 1.04 | 0.924 | 0.783 | 0.445 | 0.271 | 0.236 | 0.714 | 0.555 | 0.485 | 0.747 | 0.738 | 0.517 |
| NCI-H1793 | 0.375 | 0.334 | 0.194 | 0.261 | 0.183 | 0.168 | 0.614 | 0.425 | 0.214 | 0.331 | 0.279 | 0.273 | 0.398 | 0.282 | 0.214 | 0.649 | 0.438 | 0.231 |
| NCI-H1915 | 0.273 | 0.192 | 0.201 | 0.618 | 0.473 | 0.574 | 0.957 | 0.945 | 1 | 0.278 | 0.257 | 0.275 | 0.248 | 0.249 | 0.227 | 0.528 | 0.483 | 0.432 |
